Test results as given in patent US7348160B2, “Phosphoamidase assay” (Merck Patent GmbH, priority 2002, dated 2008).
Like-named read-outs stand apart in the source and are kept apart here.

Experiments:
PHP1 [1] = target: T1, PHP1 (Homo sapiens, UniProt Q9NRX4); test: pH-dependence of conversion of fluorogenic and chromogenic substrates by PHP1; type: biochemical; conditions: for acceptance as substrate by PHP1: pH 5-9, 0.1 μM PHP1; for turnover rate by PHP1 in more alkaline media: pH above the maximum, up to pH 9
T1 sequence (Q9NRX4 1-125): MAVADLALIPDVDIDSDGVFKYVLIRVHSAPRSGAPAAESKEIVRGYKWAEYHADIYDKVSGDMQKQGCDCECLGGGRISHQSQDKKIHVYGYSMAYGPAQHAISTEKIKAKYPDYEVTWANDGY
Excerpt: Because it is well known that the use of phospho fluorophores like DIFMUP, MUP, DDAO or FDP as phosphatase substrates have certain limitations due to the compatibility of the substrate pKa-values with the pH-optima of the respective phosphatase, the pH-dependence of the PHP1 reactivity towards the aforementioned fluorogenic substrates is to be determined. As shown in FIG. 1 the pH is varied from pH=5-9 in steps of 0.5 pH-units. In order to avoid undesired fluorescence flattening effects due to high absorption by the accumulating reaction product the initial reaction velocity is used as relative measure for the pH-dependence of PHP1-reactivity towards the selected substrate.
To start the reaction PHP1 was added from a pre dilution in the respective reaction buffer to yield a final concentration of 0.1 μM. The reaction was monitored by recording the increase in relative fluorescence at the respective fluorescence emission maxima (Fluoromax Gemini XL microplate reader).

PHP1 [2] = target: T1, PHP1; test: Kinetic analysis of the conversion of FDP and DiFMUP by PHP1; type: biochemical; conditions: pH 7.0, 0.1 μM PHP1
Description: The KM-values for DiFMUP and FDP can be approximated by recording the initial reaction velocity in dependence of the substrate concentration, as observed by the increase in relative fluorescence at the respective fluorescence emission maxima upon addition of PHP1. […] This effect limits the range of substrate variation. For FDP concentrations >20 μM the signal quenching disturbs reaction rate measurements detrimentally. […] Measurements for DiFMUP are limited to concentrations below 500 μM.
To start the reaction PHP1 was added from a stock solution to a final concentration of 0.1 in μM. The reaction was monitored by recording the increase in relative fluorescence at the respective fluorescence emission maxima in an SLM fluorescence spectrometer. To allow for quantification the fluorescence signal was normalised using a standard curve recorded for a serial dilution of fully dephosphorylated DiFMUP and FDP respectively. All recordings were carried out at the same PM-voltage and integration time with correction for the relative signal gain.

PHP1 [3] = target: T1, PHP1; test: Screening assay for inhibitors or activators of PHP1 with DiFMUP substrate; type: biochemical
Description: In order to test whether the phosphoamidase and protein phosphoamidase substrates of the present invention are suitable for the for identification of inhibitors or activators of these proteins, the activity of PHP1 was determined with the substrate DiFMUP in presence of bisperoxo-(bipyridine)-oxovanadate [(bp)V(bipy)], a well characterized inhibitor of protein phosphotyrosine phosphatase(FIG. 9). The inhibitor concentration varied from 0.01 to 30 μM, the enzyme concentration was kept at 0.1 μM and substrate concentration at 50 μM. After incubation for 15 min at room temperature the fluorescence was detected at 450 nm on excitation at 360 nm.
The reaction mixtures for inhibitor screening were prepared by serial 2 fold dilution of the inhibitor bpV(bipy) (Alexis Biochemicals San Diego) starting at 60 μM into 50 μl of the assay buffer consisting of 25 mM Hepes pH=7, 20 mM NaCl, 1 mM MgCl2, 0.01 mg/ml BSA. In a next step 50 μl of a solution of 0.3 μM PHP1 in assay buffer was added to each well and incubated for 5 min at room temperature. In order to initiate the reaction a pre dilution of 50 μM DiFMUP-substrate in assay-buffer was rapidly added to all wells. The reaction was monitored by recording the increase in relative fluorescence at the respective fluorescence emission maxima (Fluoromax Gemini XL microplate reader). The relative activity was calculated using the RFU derived from a control reaction without inhibitor.

[4] = target: T2, T-cell tyrosine phosphatase (Homo sapiens, UniProt P17706); conditions: from literature (Kerby et al. 2001); cited from earlier work
T2 sequence (P17706 1-415): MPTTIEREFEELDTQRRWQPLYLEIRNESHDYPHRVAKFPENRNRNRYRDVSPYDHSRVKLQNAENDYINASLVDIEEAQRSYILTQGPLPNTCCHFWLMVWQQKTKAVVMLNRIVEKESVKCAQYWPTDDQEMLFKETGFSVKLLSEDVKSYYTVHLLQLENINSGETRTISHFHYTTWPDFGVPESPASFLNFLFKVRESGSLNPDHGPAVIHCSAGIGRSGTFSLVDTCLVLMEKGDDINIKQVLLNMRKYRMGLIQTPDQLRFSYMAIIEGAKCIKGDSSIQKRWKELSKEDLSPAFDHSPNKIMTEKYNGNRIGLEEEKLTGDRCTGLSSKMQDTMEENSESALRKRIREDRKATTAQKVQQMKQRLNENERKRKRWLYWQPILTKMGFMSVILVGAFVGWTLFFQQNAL

[5] = 0.1 μM PHP1, 50 μM DiFMUP, inhibitor 0.01 to 30 μM

Row | turnover rate by PHP1 in more alkaline media (PHP1 [1]) | Molecule | acceptance as substrate by PHP1 (PHP1 [1]) | also measured
1 | – | O=[N+]([O-])c1ccc(OP(=O)(O)O)cc1 [pNPP, para-nitrophenol phosphate] | not recognised and processed by PHP1 at any pH | –
2 | second distinct maximum | fluorescein diphosphate [FDP] | accepts | Km (PHP1 [2]; non-linear curve fit, high uncertainty, read-out: Michaelis constant KM for PHP1): ~20 µM
3 | – | bisperoxo-(bipyridine)-oxovanadate [(bp)V(bipy)] | – | concentration showing inhibitory effect on PHP1 (PHP1 [3]; [5]): above 10 μM; inhibition of PHP1 activity (PHP1 [3]; [5]): reproducible and clearly dose-dependent inhibition; activation of PHP1 activity (PHP1 [3]; equimolar concentrations (0.1 μM PHP1), 50 μM DiFMUP): by a factor of two
4 | decrease in turnover rate | Cc1cc(=O)oc2c(F)c(OP(=O)(O)O)c(F)cc12 [DiFMUP, 6,8-difluoro-4-methylum-belliferyl phosphate] | accepts | Km (PHP1 [2]; estimated from Lineweaver-Burk plot, read-out: KM-value for PHP1): > 1000 µM; Km [4]: 20 µM

Row | Molecule | turnover rate by PHP1 in more alkaline media (PHP1 [1]) | acceptance as substrate by PHP1 (PHP1 [1]) | also measured
5 | CC1(C)C2=C(Cl)C(=O)C(Cl)=CC2=Nc2ccc(OP(=O)(O)O)cc21 [DDAO, 9H-(1,3-dichloro-9,9-dimethyl-acridin-2-one-7-yl)phosphate] | stays relatively constant | accepts | –
